{"source": "patent US20080145346A1", "about": "“Methods And Compounds For Altering The Load Of Hepatitis Virus” (Agency for Science, Technology and Research, priority 2003, published 2008)", "system": "hnRNP K", "test": "Electrophoretic Mobility Shift Assay (EMSA) of HBV enhancer II probes with HepG2 nuclear extracts", "type": "binding, human", "details": "10 μg HepG2 nuclear extracts; 32P end-labelled 28-mer probe", "description": "28-mer oligonucleotide probes were designed to contain either the 1752A or 1752G nucleotide with control probes taken from the adjacent upstream sequence. EMSA was performed using HepG2 nuclear extracts with the four respective probes. Probe 1 (SEQ ID NO: 12): Lanes 1 to 4; Probe 2 (SEQ ID NO: 13, A^1752): Lanes 5 to 8; Probe 3 (SEQ ID NO: 14): Lanes 9 to 12; Probe 4 (SEQ ID NO: 15, G^1752): Lanes 13 to 16. Each set of probes contains increasing concentrations (0.0 μg, 0.05 μg, 0.10 μg and 0.15 μg) of non-specific competitor DNA of [poly-(dI)-poly-(dC)] respectively. This competitor DNA is included to minimize the binding of nonspecific proteins to the labeled probes. DNA-protein complexes migrate at a different speed than free DNA molecules. […] Verification of the presence of hnRNP K as the second component in the complex can subsequently be performed by an analysis as shown in FIG. 19. hnRNP K was detected using the 1752A probe (Probe 2, lanes 5 to 8) along with a weaker band of similar size using the 1752G probe (Probe 4, lanes 13 to 16). […]\nHBV-hnRNP K interaction was analysed by a method that is known to persons skilled in the art as an “electrophoretic mobility shift assay” or “EMSA”. […] The 1752A probe (Probe 2, lanes 5 to 8) detected hnRNP K in form of a band. A corresponding weaker band of hnRNP was detected by the 1752G probe (Probe 4, lanes 13 to 16 in FIG. 18)."}
{"sequence": "AGTTGGGGGAGGAGATTAGGTTAAAGGT (listed as DNA, chemistry not given here) [Probe 2, 28-mer HBV enhancer II oligonucleotide probe containing 1752A]", "values": [{"measurement": "densitometric band signal of hnRNP K higher than that detected by Probe 4", "value": "about 300%"}]}
